O=Cc1cccc([N+](=O)[O-])c1
solubility (mole fraction)
Conditions | in ethyl acetate | in isopropanol | in methanol | in n-butanol | in n-propanol | in toluene
273.15 K | – | 0.00629 | 0.0889 | 0.0206 | 0.0254 | 0.0957
275.65 K | – | 0.00735 | 0.103 | 0.0235 | 0.0293 | 0.11
278.15 K | – | 0.0086 | 0.118 | 0.0274 | 0.0338 | 0.126
280.65 K | – | 0.00997 | 0.136 | 0.0314 | 0.0385 | 0.144
283.15 K | – | 0.0115 | 0.156 | 0.0357 | 0.0442 | 0.167
285.65 K | 0.256 | 0.0133 | 0.178 | 0.041 | 0.0505 | 0.188
288.15 K | 0.285 | 0.0153 | 0.203 | 0.0466 | 0.0575 | 0.215
290.65 K | 0.316 | 0.0176 | 0.23 | 0.0529 | 0.0648 | 0.245
293.15 K | 0.348 | 0.0203 | 0.261 | 0.0596 | 0.0729 | 0.276
295.65 K | 0.385 | 0.0232 | 0.295 | 0.0677 | 0.0833 | 0.31
298.15 K | 0.425 | 0.0267 | 0.332 | 0.0764 | 0.0942 | 0.347
300.65 K | 0.465 | 0.0305 | 0.373 | 0.086 | 0.106 | 0.385
303.15 K | 0.511 | 0.035 | 0.419 | 0.0973 | – | 0.428
303.152 K | – | – | – | – | 0.12 | –

Reference: BigSolDB 2.1
